This is an account of results in patent US20250186391A1, “ORAL COMPLEMENT FACTOR D INHIBITORS” (BioCryst Pharmaceuticals, Inc., priority 2019, published 2025).

Chain of Factor D (P00746 26-253): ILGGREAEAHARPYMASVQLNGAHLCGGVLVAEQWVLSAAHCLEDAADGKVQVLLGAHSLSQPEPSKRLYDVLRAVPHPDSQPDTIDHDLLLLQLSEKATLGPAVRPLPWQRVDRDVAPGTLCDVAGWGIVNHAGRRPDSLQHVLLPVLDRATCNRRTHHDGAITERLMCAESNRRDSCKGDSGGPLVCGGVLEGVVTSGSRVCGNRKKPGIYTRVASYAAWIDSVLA

The target of the assay is Factor D (Homo sapiens (Human), UniProt P00746). The assay can be described thus: Factor D esterolytic assay. It is filed as biochemical. The settings on record: Z-Lys-SBzl substrate, 100 mM HEPES, 500 mM NaCl, pH 7.5, 10% DMSO; tested a minimum of three times; read-out: Measured Ki (IC50) Value for Compounds: IC50. Put shortly:
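Buffer was 100 mM HEPES, 500 mM NaCl, pH 7.5 with 10% DMSO. Compound and Factor D were combined, then Z-Lys-SBzl (1.29 mM) was added either at once or following room-temperature incubation. Rates came from DTNB colour at 405 nm minus 690 nm over 600 s, with percent inhibition giving IC50 over at least three tests.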
For `N#Cc1ccc(CC(=O)O)c(OCc2coc3ccc(-c4cccc(CN)c4)cc23)c1` [Compound 57d, 2-(2-((5-(3-(aminomethyl)phenyl)benzofuran-3-yl)methoxy)-4-cyanophenyl)acetic acid], the IC50 was under 1000 nM.
As for `CC(C)n1nc(COc2ccccc2CC(=O)O)c2cc(-c3cccc([C@H](C)N)c3)ccc21` [Compound 320b, (S)-2-(2-((5-(3-(1-aminoethyl)phenyl)-1-isopropyl-1H-indazol-3-yl)methoxy)phenyl)acetic acid], the IC50 is under 1000 nM.
The value for `Cc1ccc(CC(=O)O)c(OCc2coc3c(C)cc(-c4cccc(CN)c4)cc23)c1` [Compound 313c, 2-(2-((5-(3-(aminomethyl)phenyl)-7-methylbenzofuran-3-yl)methoxy)-4-methylphenyl)acetic acid] was under 1000 nM; that for `COc1ccc(CC(=O)O)c(OCc2c(C3CC3)oc3ccc(-c4cccc(CN)c4)cc23)c1` [Compound 247c, 2-(2-((5-(3-(aminomethyl)phenyl)-2-cyclopropylbenzofuran-3-yl)methoxy)-4-methoxyphenyl)acetic acid] was under 1000 nM.
As for `CN(Cc1cc(-c2cccc(CN)c2)cc2c(COc3ccccc3CC(=O)O)coc12)C1CC1` [Compound 261e, 2-(2-((5-(3-(aminomethyl)phenyl)-7-((cyclopropyl(methyl)amino)methyl)benzofuran-3-yl)methoxy)phenyl)acetic acid], the figure is under 1000 nM; as for `NCc1cccc(-c2cc(N3CCOCC3)c3occ(COc4ccccc4CC(=O)O)c3c2)c1` [Compound 154c, 2-(2-((5-(3-(aminomethyl)phenyl)-7-morpholinobenzofuran-3-yl)methoxy)phenyl)acetic acid], under 1000 nM; as for `Cc1ccc(CC(=O)O)c(OCc2nn(C(C)C)c3ccc(-c4cccc(CN)c4)cc23)c1` [Compound 254c, 2-(2-((5-(3-(aminomethyl)phenyl)-1-isopropyl-1H-indazol-3-yl)methoxy)-4-methylphenyl)acetic acid], under 1000 nM.
As for `Cc1ccc(CC(=O)O)c(OCc2coc3ccc(-c4cccc(CN)c4)cc23)c1` [Compound 47d, 2-(2-((5-(3-(aminomethyl)phenyl)benzofuran-3-yl)methoxy)-4-methylphenyl)acetic acid], the IC50 was under 1000 nM.
The value for `Cn1cc(-c2cc(-c3cccc(CN)c3)cc3c(COc4ccccc4CC(=O)O)coc23)cn1` [Compound 72h, 2-(2-((5-(3-(aminomethyl)phenyl)-7-(1-methyl-1H-pyrazol-4-yl)benzofuran-3-yl)methoxy)phenyl)acetic acid] was under 1000 nM; that for `NCc1cccc(-c2ccc3nnc(COc4ccccc4CC(=O)O)n3c2)c1` [Compound 212d, 2-(2-((6-(3-(aminomethyl)phenyl)-[1,2,4]triazolo[4,3-a]pyridin-3-yl)methoxy)phenyl)acetic acid] was under 1000 nM.
Regarding `NCc1cccc(-c2ccc3sc(C(=O)O)c(COc4ccccc4CC(=O)O)c3c2)c1` [Compound 56d, 5-(3-(aminomethyl)phenyl)-3-((2-(carboxymethyl)phenoxy)methyl)benzo[b]thiophene-2-carboxylic acid], the IC50 was under 1000 nM.
On to `CC(C)n1nc(COc2ccccc2CC(=O)O)c2cc(-c3cc(O)cc(CN)c3)ccc21` [Compound 243g, 2-(2-((5-(3-(aminomethyl)-5-hydroxyphenyl)-1-isopropyl-1H-indazol-3-yl)methoxy)phenyl)acetic acid], for which the IC50 is under 1000 nM.
As for `NCc1cc(-c2cc3c(COc4ccccc4CC(=O)O)coc3c3ccoc23)ccn1` [Compound 288d, 2-(2-((5-(2-(aminomethyl)pyridin-4-yl)benzo[1,2-b:3,4-b′]difuran-3-yl)methoxy)phenyl)acetic acid], the figure is under 1000 nM; as for `NCc1nccc(-c2cc3c(COc4ccccc4CC(=O)O)coc3c3ccoc23)c1F` [Compound 289d, 2-(2-((5-(2-(aminomethyl)-3-fluoropyridin-4-yl)benzo[1,2-b:3,4-b′]difuran-3-yl)methoxy)phenyl)acetic acid], under 1000 nM.
On to `NCc1cccc(-c2cc(NCC3CCOC3)c3occ(COc4ccccc4CC(=O)O)c3c2)c1` (stereo not shown) [Compound 147d, 2-(2-((5-(3-(aminomethyl)phenyl)-7-(((tetrahydrofuran-3-yl)methyl)amino)benzofuran-3-yl)methoxy)phenyl)acetic acid], for which the IC50 was under 1000 nM.
As for `NCc1cccc(-c2cc(CNCC3CC3)cc3cc(COc4ccccc4CC(=O)O)oc23)c1` [Compound 11d, 2-(2-((7-(3-(aminomethyl)phenyl)-5-(((cyclopropylmethyl)amino)methyl)benzofuran-2-yl)methoxy)phenyl)acetic acid], the figure is under 1000 nM; as for `COc1ccc(CC(=O)O)c(OCc2c(C)oc3ccc(-c4cccc([C@H](C)N)c4)cc23)c1` [Compound 240b, (S)-2-(2-((5-(3-(1-aminoethyl)phenyl)-2-methylbenzofuran-3-yl)methoxy)-4-methoxyphenyl)acetic acid], under 1000 nM.
The value for `COc1cccc(CC(=O)O)c1OCc1coc2ccc(-c3cccc(CN)c3)cc12` [Compound 104e, 2-(2-((5-(3-(aminomethyl)phenyl)benzofuran-3-yl)methoxy)-3-methoxyphenyl)acetic acid] was under 1000 nM; that for `NCc1cc(-c2cc(COc3ccccc3CC(=O)O)cc3cc(COc4ccccc4CC(=O)O)oc23)ccn1` [Compound 27e, 2,2′-((((7-(2-(aminomethyl)pyridin-4-yl)benzofuran-2,5-diyl)bis(methylene))bis(oxy))bis(2,1-phenylene))diacetic acid] was under 1000 nM.
As for `NCc1cccc(-c2cccc3oc(COc4ccccc4CC(=O)O)cc23)c1` [Compound 26a, 2-(2-((4-(3-(aminomethyl)phenyl)benzofuran-2-yl)methoxy)phenyl)acetic acid], the figure is under 1000 nM; as for `COc1ccc(CC(=O)O)c(OCc2c(C(C)O)oc3ccc(-c4cccc(CN)c4)cc23)c1` (stereo not shown) [Compound 217c, 2-(2-((5-(3-(aminomethyl)phenyl)-2-(1-hydroxyethyl)benzofuran-3-yl)methoxy)-4-methoxyphenyl)acetic acid], under 1000 nM.
As for `NCc1cccc(-c2ccc3occ(COc4ccccc4CC(=O)O)c3c2)c1F` [Compound 42b, 2-(2-((5-(3-(aminomethyl)-2-fluorophenyl)benzofuran-3-yl)methoxy)phenyl)acetic acid], the IC50 was under 1000 nM.
The value for `Cc1ccc(CC(=O)O)c(OCc2coc3c2cc(-c2cccc(CN)c2)c2occc23)c1` [Compound 230c, 2-(2-((5-(3-(aminomethyl)phenyl)benzo[1,2-b:3,4-b′]difuran-3-yl)methoxy)-4-methylphenyl)acetic acid] was under 1000 nM; that for `CC(C)c1oc2ccc(-c3cccc(CN)c3)cc2c1COc1ccccc1CC(=O)O` [Compound 142e, 2-(2-((5-(3-(aminomethyl)phenyl)-2-isopropylbenzofuran-3-yl)methoxy)phenyl)acetic acid] was under 1000 nM.
As to `NCc1cccc(-c2cccc3cc(COc4ccccc4CC(=O)O)sc23)c1` [Compound 30d, 2-(2-((7-(3-(aminomethyl)phenyl)benzo[b]thiophen-2-yl)methoxy)phenyl)acetic acid], the IC50 was under 1000 nM.
As for `Cc1nn(C)c(C)c1-c1cc(-c2cccc(CN)c2)cc2c(COc3ccccc3CC(=O)O)coc12` [Compound 268c, 2-(2-((5-(3-(aminomethyl)phenyl)-7-(1,3,5-trimethyl-1H-pyrazol-4-yl)benzofuran-3-yl)methoxy)phenyl)acetic acid], the figure is under 1000 nM; as for `NCc1cccc(-c2cccc3c(COc4ccccc4CC(=O)O)coc23)c1` [Compound 36e, 2-(2-((7-(3-(aminomethyl)phenyl)benzofuran-3-yl)methoxy)phenyl)acetic acid], over 10000 nM.
The value for `NCc1cccc(-c2cc(C3CC3)c3occ(COc4ccccc4CC(=O)O)c3c2)c1` [Compound 120c, 2-(2-((5-(3-(aminomethyl)phenyl)-7-cyclopropylbenzofuran-3-yl)methoxy)phenyl)acetic acid] was under 1000 nM; that for `CC(C)Cn1cc(-c2cc(-c3cccc(CN)c3)cc3c(COc4ccccc4CC(=O)O)coc23)cn1` [Compound 129c, 2-(2-((5-(3-(aminomethyl)phenyl)-7-(1-isobutyl-1H-pyrazol-4-yl)benzofuran-3-yl)methoxy)phenyl)acetic acid] was under 1000 nM; that for `Cc1ccc(S(=O)(=O)n2cc(COc3ccccc3CC(=O)O)c3cc(-c4cccc(CN)c4)ccc32)cc1` [Compound 66f, 2-(2-((5-(3-(aminomethyl)phenyl)-1-tosyl-1H-indol-3-yl)methoxy)phenyl)acetic acid] was under 1000 nM.
The value for `COc1ccc(CC(=O)O)c(OCc2c(-c3ccc(F)cc3)oc3ccc(-c4cccc(CN)c4)cc23)c1` [Compound 168c, 2-(2-((5-(3-(aminomethyl)phenyl)-2-(4-fluorophenyl)benzofuran-3-yl)methoxy)-4-methoxyphenyl)acetic acid] was under 1000 nM; that for `COc1ccc(CC(=O)O)c(OCc2c(C(F)F)oc3c(NCC4CC4)cc(-c4cccc(CN)c4)cc23)c1` [Compound 236c, 2-(2-((5-(3-(aminomethyl)phenyl)-7-((cyclopropylmethyl)amino)-2-(difluoromethyl)benzofuran-3-yl)methoxy)-4-methoxyphenyl)acetic acid] was under 1000 nM.
As for `NCc1cccc(-c2ccc3occ(COc4c(F)cccc4CC(=O)O)c3c2)c1` [Compound 44d, 2-(2-((5-(3-(aminomethyl)phenyl)benzofuran-3-yl)methoxy)-3-fluorophenyl)acetic acid], the IC50 is under 1000 nM.
As for `NCc1cccc(-c2ccc3[nH]cc(C(=O)Nc4ccccc4CC(=O)O)c3n2)c1` [Compound 14c, 2-(2-(5-(3-(aminomethyl)phenyl)-1H-pyrrolo[3,2-b]pyridine-3-carboxamido)phenyl)acetic acid], the figure is under 1000 nM.

For orientation: IC50 means the concentration that gives 50% inhibition.
